# Assay results taken from US20230293526A1, “METHOD FOR TREATING CANCER WITH A REVERSE TRANSCRIPTASE INHIBITOR” (PrimeFour Therapeutics, Inc., priority 2020, published 2023).
# Key:
# Test in all cases: Cell proliferation Ex.3
# Format in all cases: cell-based
# SKHEP1 = conditions: Homo sapiens, SK-HEP1
# Experimental: (§1) A dose response relationship on cell proliferation was assessed for Compound 13 on 140 tumor cell lines. […] Cells were cultured in the appropriate media. For the assays, cells were seeded in white cell culture-treated flat and clear bottom multiwell plates and incubated at 37° C. overnight before compound was added. […] on the medium, cell plates were equilibrated to room temperature for one hour, CellTiterGlo reagent (Promega) was added and luminescence was measured approximately an hour later using a luminometer. Raw data were converted into percent cell viability relative to the high and low control, which were set to 10000 and 000, respectively.
# SF295 = conditions: Homo sapiens, SF-295
# Experimental: as §1
# J82 = conditions: Homo sapiens
# Experimental: as §1
# HL-60 = conditions: Homo sapiens
# Experimental: as §1
# JAR = test system: JAR
# Experimental: as §1
# OVCAR3 = conditions: Homo sapiens, OVCAR-3
# Experimental: as §1
# WSU-NHL = conditions: Homo sapiens
# Experimental: as §1
# C33A = conditions: Homo sapiens, C-33-A
# Experimental: as §1
# ACHN = conditions: Homo sapiens
# Experimental: as §1
# EFO21 = conditions: Homo sapiens, EFO-21
# Experimental: as §1
# HS578T = conditions: Homo sapiens, Hs-578T
# Experimental: as §1
# BXPC3 = conditions: Homo sapiens, BXPC-3
# Experimental: as §1
# MDAMB435 = conditions: Homo sapiens, MDA-MB-435
# Experimental: as §1
# UMUC3 = conditions: Homo sapiens
# Experimental: as §1
# COLO205 = conditions: Homo sapiens, COLO 205
# Experimental: as §1
# A204 = conditions: Homo sapiens
# Experimental: as §1
# BT20 = conditions: Homo sapiens, BT-20
# Experimental: as §1
# A375 = conditions: Homo sapiens, A-375
# Experimental: as §1
# CALU6 = conditions: Homo sapiens, Calu-6
# Experimental: as §1
# U2OS = conditions: Homo sapiens
# Experimental: as §1
# HT29 = conditions: Homo sapiens, HT-29
# Experimental: as §1
# THP-1 = conditions: Homo sapiens
# Experimental: as §1
# PANC1005 = conditions: Homo sapiens
# Experimental: as §1
# PLCPRF5 = conditions: Homo sapiens, PLC-PRF-5
# Experimental: as §1
# SKBR3 = conditions: Homo sapiens, SK-BR-3
# Experimental: as §1
# SKLMS1 = conditions: Homo sapiens, SK-LMS-1
# Experimental: as §1
structure (smiles),measurement,setting,value
C#C[C@]1(CO)O[C@@H](n2cc(F)c(N)nc2=O)C[C@@H]1O [compound 9],IC50,"SKHEP1; SKHEP1, 72 h",> 10 µM
same,IC50,"SKHEP1; SKHEP1, 120 h",> 10 µM
same,IC50,"SKHEP1; SKHEP1, 168 h",> 10 µM
same,IC50,"SF295; SF295, 72 h",> 10 µM
same,IC50,"SF295; SF295, 120 h",> 10 µM
same,IC50,"SF295; SF295, 168 h",> 10 µM
same,IC50,"J82; J82, 72 h",> 10 µM
same,IC50,"J82; J82, 120 h",> 10 µM
same,IC50,"J82; J82, 168 h",> 10 µM
same,IC50,"HL-60; HL-60, 72 h",> 10 µM
same,IC50,"HL-60; HL-60, 120 h",> 10 µM
same,IC50,"HL-60; HL-60, 168 h",> 10 µM
same,IC50,JAR; 72 h,> 10 µM
same,IC50,JAR; 120 h,> 10 µM
same,IC50,JAR; 168 h,> 10 µM
same,IC50,"OVCAR3; OVCAR3, 72 h",> 10 µM
same,IC50,"OVCAR3; OVCAR3, 120 h",> 10 µM
same,IC50,"OVCAR3; OVCAR3, 168 h",> 10 µM
same,IC50,WSU-NHL; 72 h,3010 nM
same,IC50,WSU-NHL; 120 h,420 nM
same,IC50,WSU-NHL; 168 h,870 nM
same,IC50,C33A; 72 h,> 10 µM
same,IC50,C33A; 120 h,2.93 µM
same,IC50,C33A; 168 h,3.07 µM
same,IC50,ACHN; 72 h,> 10000 nM
same,IC50,ACHN; 120 h,910 nM
same,IC50,ACHN; 168 h,940 nM
same,IC50,"EFO21; EFO21, 72 h",> 10 µM
same,IC50,"EFO21; EFO21, 120 h",> 10 µM
same,IC50,"EFO21; EFO21, 168 h",> 10 µM
same,IC50,HS578T; 72 h,> 10 µM
same,IC50,HS578T; 120 h,> 10 µM
same,IC50,HS578T; 168 h,> 10 µM
same,IC50,"BXPC3; BXPC3, 72 h",> 10000 nM
same,IC50,"BXPC3; BXPC3, 120 h",1290 nM
same,IC50,"BXPC3; BXPC3, 168 h",590 nM
same,IC50,"MDAMB435; MDAMB435, 72 h",> 10 µM
same,IC50,"MDAMB435; MDAMB435, 120 h",> 10 µM
same,IC50,"MDAMB435; MDAMB435, 168 h",> 10 µM
same,IC50,"UMUC3; UMUC3, 72 h",> 10 µM
same,IC50,"UMUC3; UMUC3, 120 h",> 10 µM
same,IC50,"UMUC3; UMUC3, 168 h",> 10 µM
same,IC50,"COLO205; COLO205, 72 h",> 10000 nM
same,IC50,"COLO205; COLO205, 120 h",1150 nM
same,IC50,"COLO205; COLO205, 168 h",870 nM
same,IC50,"A204; A204, 72 h",> 10 µM
same,IC50,"A204; A204, 120 h",> 10 µM
same,IC50,"A204; A204, 168 h",> 10 µM
same,IC50,"BT20; BT20, 72 h",> 10 µM
same,IC50,"BT20; BT20, 120 h",> 10 µM
same,IC50,"BT20; BT20, 168 h",> 10 µM
same,IC50,"A375; A375, 72 h",> 10 µM
same,IC50,"A375; A375, 120 h",> 10 µM
same,IC50,"A375; A375, 168 h",> 10 µM
same,IC50,"CALU6; CALU6, 72 h",> 10 µM
same,IC50,"CALU6; CALU6, 120 h",> 10 µM
same,IC50,"CALU6; CALU6, 168 h",> 10 µM
same,IC50,U2OS; 72 h,> 10 µM
same,IC50,U2OS; 120 h,> 10 µM
same,IC50,U2OS; 168 h,> 10 µM
same,IC50,"HT29; HT29, 72 h",> 10 µM
same,IC50,"HT29; HT29, 120 h",> 10 µM
same,IC50,"HT29; HT29, 168 h",> 10 µM
same,IC50,"THP-1; THP-1, 72 h",> 10 µM
same,IC50,"THP-1; THP-1, 120 h",> 10 µM
same,IC50,"THP-1; THP-1, 168 h",> 10 µM
same,IC50,"PANC1005; Panc1005, 72 h",> 10 µM
same,IC50,"PANC1005; Panc1005, 120 h",> 10 µM
same,IC50,"PANC1005; Panc1005, 168 h",> 10 µM
same,IC50,"PLCPRF5; PLCPRF5, 72 h",> 10 µM
same,IC50,"PLCPRF5; PLCPRF5, 120 h",> 10 µM
same,IC50,"PLCPRF5; PLCPRF5, 168 h",> 10 µM
same,IC50,"SKBR3; SKBR3, 72 h",1450 nM
same,IC50,"SKBR3; SKBR3, 120 h",960 nM
same,IC50,"SKBR3; SKBR3, 168 h",370 nM
same,IC50,"SKLMS1; SKLMS1, 72 h",> 10 µM
same,IC50,"SKLMS1; SKLMS1, 120 h",> 10 µM
same,IC50,"SKLMS1; SKLMS1, 168 h",> 10 µM
